Data: patent publication USRE39706E1, “Crystalline form of a vitamin D analogue” (Leo Pharma A/S, priority 1993, dated 2007)
Read-outs that look alike come from different tables or passages of the source.

Assay: Stability studies, storage at 40° C.
Type: physicochemical

| Compound | degradation after 12 months storage | degradation after 12 months storage (hydrate) |
| --- | --- | --- |
| C=C1/C(=C\C=C2/CCC[C@]3(C)[C@@H]([C@H](C)/C=C/[C@@H](O)C4CC4)CC[C@@H]23)C[C@@H](O)C[C@@H]1O [anhydrous form of calcipotriol, (1α,3β,5Z,7E,22E,24S)-24-Cyclopropyl-9,10-secochola-5,7,10(19), 22-tetraene-1,3,24-triol] | more than 30% |  |
| C=C1/C(=C\C=C2/CCC[C@]3(C)[C@@H]([C@H](C)/C=C/[C@@H](O)C4CC4)CC[C@@H]23)C[C@@H](O)C[C@@H]1O [calcipotriol hydrate, calcipotriol, hydrate] |  | no degradation |
